≈ marks a conversion by molar mass, not a printed value.
Assay: solubility of oAB in water depending on the pH
Format: physicochemical
Conditions: plasma or biological fluid; pH between 3.0 and 4.0; fermentation broth; read-out: oAB remaining dissolved at the solubility minimum

Nc1ccccc1C(=O)O [oAB, 2-aminobenzoic acid]
solubility: ~5000 µg/mL (≈ 36.5 mM)
